Experimental data reported in publication PMC7181660, “A novel specific PERK activator reduces toxicity and extends survival in Huntington's disease models” (Scientific Reports, 2020).
Where two headings read alike, the source gives them in different places.

Legend:
Experiment in all cases: biochemical
Type in all cases: biochemical
panel of 391 kinases [1] = target: panel of 391 kinases (Homo sapiens, UniProt O00444); conditions: PLK4/SAK, MK-28 1 µM, ATP 1 µM
panel of 391 kinases [2] = target: panel of 391 kinases (Homo sapiens, UniProt O75582); conditions: MSK1/RPS6KA5, MK-28 1 µM, ATP 1 µM
panel of 391 kinases [3] = target: panel of 391 kinases (Homo sapiens, UniProt O75716); conditions: STK16, MK-28 1 µM, ATP 1 µM
panel of 391 kinases [4] = target: panel of 391 kinases (Homo sapiens, UniProt P08631); conditions: HCK, MK-28 1 µM, ATP 1 µM
panel of 391 kinases [5] = target: panel of 391 kinases (Homo sapiens, UniProt P29322); conditions: EPHA8, MK-28 1 µM, ATP 1 µM
panel of 391 kinases [6] = target: panel of 391 kinases (Homo sapiens, UniProt P29597); conditions: TYK2, MK-28 1 µM, ATP 1 µM
panel of 391 kinases [7] = target: panel of 391 kinases (Homo sapiens, UniProt P30291); conditions: WEE1, MK-28 1 µM, ATP 1 µM
panel of 391 kinases [8] = target: panel of 391 kinases (Homo sapiens, UniProt P31751); conditions: AKT2, MK-28 1 µM, ATP 1 µM
panel of 391 kinases [9] = target: panel of 391 kinases (Homo sapiens, UniProt P34947); conditions: GRK5, MK-28 1 µM, ATP 1 µM
panel of 391 kinases [10] = target: panel of 391 kinases (Homo sapiens, UniProt P43405); conditions: SYK, MK-28 1 µM, ATP 1 µM
panel of 391 kinases [11] = target: panel of 391 kinases (Homo sapiens, UniProt P45983); conditions: JNK1, MK-28 1 µM, ATP 1 µM
panel of 391 kinases [12] = target: panel of 391 kinases (Homo sapiens, UniProt Q00526); conditions: MK-28 1 µM, ATP 1 µM; for remaining activity at 1 µM: read-out: % Enzyme Activity (relative to DMSO controls)
panel of 391 kinases [13] = target: panel of 391 kinases (Homo sapiens, UniProt Q13131); conditions: compound at 1 µM, single dose in duplicates, 1 µM ATP; for remaining activity at 1 µM: read-out: % Enzyme Activity (relative to DMSO controls)
panel of 391 kinases [14] = target: panel of 391 kinases (Homo sapiens, UniProt Q13554); conditions: CAMK2b, MK-28 1 µM, ATP 1 µM
panel of 391 kinases [15] = target: panel of 391 kinases (Homo sapiens, UniProt Q16288); conditions: TRKC, MK-28 1 µM, ATP 1 µM
panel of 391 kinases [16] = target: panel of 391 kinases (Homo sapiens, UniProt Q16644); conditions: MAPKAPK3, MK-28 1 µM, ATP 1 µM
panel of 391 kinases [17] = target: panel of 391 kinases (Homo sapiens, UniProt Q5VT25); conditions: MRCKa/CDC42BPA, MK-28 1 µM, ATP 1 µM
panel of 391 kinases [18] = target: panel of 391 kinases (Homo sapiens, UniProt Q96PF2); conditions: TSSK2, MK-28 1 µM, ATP 1 µM
panel of 391 kinases [19] = target: panel of 391 kinases (Homo sapiens, UniProt Q9BYT3); conditions: STK33, MK-28 1 µM, ATP 1 µM
panel of 391 kinases [20] = target: panel of 391 kinases (Homo sapiens, UniProt Q9H0K1); conditions: SIK2, MK-28 1 µM, ATP 1 µM
panel of 391 kinases [21] = target: panel of 391 kinases (Homo sapiens, UniProt Q9H792); conditions: PEAK1, MK-28 1 µM, ATP 1 µM
panel of 391 kinases [22] = target: panel of 391 kinases (Homo sapiens, UniProt Q9NYY3); conditions: PLK2, MK-28 1 µM, ATP 1 µM
panel of 391 kinases [23] = target: panel of 391 kinases (Homo sapiens, UniProt Q9UBE8); conditions: NLK, MK-28 1 µM, ATP 1 µM
panel of 391 kinases [24] = target: panel of 391 kinases (Homo sapiens, UniProt Q9UKI8); conditions: TLK1, MK-28 1 µM, ATP 1 µM
panel of 391 kinases [25] = target: panel of 391 kinases (Homo sapiens, UniProt Q9UQM7); conditions: CAMK2a, MK-28 1 µM, ATP 1 µM
[26] = read-out: % Enzyme Activity (relative to DMSO controls)

## CN(/N=C\c1ccc(O)c(O)c1)c1nc(-c2ccccc2)cc(-c2ccccc2)n1 [MK-28]
Panel of 391 kinases [1]
  % Enzyme Activity (relative to DMSO controls): 92.07%
Panel of 391 kinases [1]; [26]
  remaining activity at 1 µM: 94.7%
Panel of 391 kinases [2]
  % Enzyme Activity (relative to DMSO controls): 97.92%
Panel of 391 kinases [2]; [26]
  remaining activity at 1 µM: 98.4%
Panel of 391 kinases [3]
  % Enzyme Activity (relative to DMSO controls): 108.93%
Panel of 391 kinases [3]; [26]
  remaining activity at 1 µM: 109%
Panel of 391 kinases [4]
  % Enzyme Activity (relative to DMSO controls): 73.97%
Panel of 391 kinases [4]; [26]
  remaining activity at 1 µM: 75.6%
Panel of 391 kinases [5]
  % Enzyme Activity (relative to DMSO controls): 98.42%
Panel of 391 kinases [5]; [26]
  remaining activity at 1 µM: 98.7%
Panel of 391 kinases [6]
  % Enzyme Activity (relative to DMSO controls): 90.72%
Panel of 391 kinases [6]; [26]
  remaining activity at 1 µM: 91.3%
Panel of 391 kinases [7]
  % Enzyme Activity (relative to DMSO controls): 112.80%
Panel of 391 kinases [7]; [26]
  remaining activity at 1 µM: 114%
Panel of 391 kinases [8]
  % Enzyme Activity (relative to DMSO controls): 95.73%
Panel of 391 kinases [8]; [26]
  remaining activity at 1 µM: 98.1%
Panel of 391 kinases [9]
  % Enzyme Activity (relative to DMSO controls): 103.49%
Panel of 391 kinases [9]; [26]
  remaining activity at 1 µM: 104%
Panel of 391 kinases [10]
  % Enzyme Activity (relative to DMSO controls): 91.75%
Panel of 391 kinases [10]; [26]
  remaining activity at 1 µM: 93%
Panel of 391 kinases [11]
  % Enzyme Activity (relative to DMSO controls): 98.63%
Panel of 391 kinases [11]; [26]
  remaining activity at 1 µM: 99.6%
Panel of 391 kinases [12]; CDK3/cyclin E2
  % Enzyme Activity (relative to DMSO controls): 90.11%
  remaining activity at 1 µM: 92.8%
Panel of 391 kinases [12]; CDK3/cyclin E
  % Enzyme Activity (relative to DMSO controls): 101.82%
  remaining activity at 1 µM: 102%
Panel of 391 kinases [13]; kinase AMPK(A1/B1/G1)
  % Enzyme Activity (relative to DMSO controls): 95.82%
  remaining activity at 1 µM: 96.3%
Panel of 391 kinases [13]; kinase AMPK(A1/B1/G2)
  % Enzyme Activity (relative to DMSO controls): 98.77%
  remaining activity at 1 µM: 101%
Panel of 391 kinases [13]; kinase AMPK(A1/B1/G3)
  % Enzyme Activity (relative to DMSO controls): 86.51%
  remaining activity at 1 µM: 87%
Panel of 391 kinases [13]; kinase AMPK(A1/B2/G1)
  % Enzyme Activity (relative to DMSO controls): 106.30%
  remaining activity at 1 µM: 108%
Panel of 391 kinases [14]
  % Enzyme Activity (relative to DMSO controls): 93.40%
Panel of 391 kinases [14]; [26]
  remaining activity at 1 µM: 98%
Panel of 391 kinases [15]
  % Enzyme Activity (relative to DMSO controls): 91.11%
Panel of 391 kinases [15]; [26]
  remaining activity at 1 µM: 92.9%
Panel of 391 kinases [16]
  % Enzyme Activity (relative to DMSO controls): 71.56%
Panel of 391 kinases [16]; [26]
  remaining activity at 1 µM: 74.1%
Panel of 391 kinases [17]
  % Enzyme Activity (relative to DMSO controls): 93.74%
Panel of 391 kinases [17]; [26]
  remaining activity at 1 µM: 95.3%
Panel of 391 kinases [18]
  % Enzyme Activity (relative to DMSO controls): 76.99%
Panel of 391 kinases [18]; [26]
  remaining activity at 1 µM: 77.3%
Panel of 391 kinases [19]
  % Enzyme Activity (relative to DMSO controls): 91.70%
Panel of 391 kinases [19]; [26]
  remaining activity at 1 µM: 95.4%
Panel of 391 kinases [20]
  % Enzyme Activity (relative to DMSO controls): 93.76%
Panel of 391 kinases [20]; [26]
  remaining activity at 1 µM: 97.5%
Panel of 391 kinases [21]
  % Enzyme Activity (relative to DMSO controls): 87.56%
Panel of 391 kinases [21]; [26]
  remaining activity at 1 µM: 88.6%
Panel of 391 kinases [22]
  % Enzyme Activity (relative to DMSO controls): 97.72%
Panel of 391 kinases [22]; [26]
  remaining activity at 1 µM: 98.5%
Panel of 391 kinases [23]
  % Enzyme Activity (relative to DMSO controls): 99.19%
Panel of 391 kinases [23]; [26]
  remaining activity at 1 µM: 105%
Panel of 391 kinases [24]
  % Enzyme Activity (relative to DMSO controls): 93.00%
Panel of 391 kinases [24]; [26]
  remaining activity at 1 µM: 96.5%
Panel of 391 kinases [25]
  % Enzyme Activity (relative to DMSO controls): 100.97%
Panel of 391 kinases [25]; [26]
  remaining activity at 1 µM: 103%
